Assay [1] relates to sham-transfected CHO cells (CHO-Neo). The experiment in a line: FACS binding of fluoresceinated conjugates to sham-transfected CHO cells. The note with it: FACS analysis. From the text:
(§1) Sham conjugation procedures were also followed substituting cysteine for glycan.
In general terms: In flow cytometry, cells or beads pass a laser one at a time.

In assay [2] the test system is αMβ2-integrin, also known as CR3 or Mac-1. The assay can be described thus: FACS binding of fluoresceinated conjugates to CHO cells transfected with αMβ2-integrin. As to conditions: FACS analysis, CHO-Mac1 cells.
αMβ2-integrin, also known as CR3 or Mac-1, sequence (P05107 23-769, other chains not shown): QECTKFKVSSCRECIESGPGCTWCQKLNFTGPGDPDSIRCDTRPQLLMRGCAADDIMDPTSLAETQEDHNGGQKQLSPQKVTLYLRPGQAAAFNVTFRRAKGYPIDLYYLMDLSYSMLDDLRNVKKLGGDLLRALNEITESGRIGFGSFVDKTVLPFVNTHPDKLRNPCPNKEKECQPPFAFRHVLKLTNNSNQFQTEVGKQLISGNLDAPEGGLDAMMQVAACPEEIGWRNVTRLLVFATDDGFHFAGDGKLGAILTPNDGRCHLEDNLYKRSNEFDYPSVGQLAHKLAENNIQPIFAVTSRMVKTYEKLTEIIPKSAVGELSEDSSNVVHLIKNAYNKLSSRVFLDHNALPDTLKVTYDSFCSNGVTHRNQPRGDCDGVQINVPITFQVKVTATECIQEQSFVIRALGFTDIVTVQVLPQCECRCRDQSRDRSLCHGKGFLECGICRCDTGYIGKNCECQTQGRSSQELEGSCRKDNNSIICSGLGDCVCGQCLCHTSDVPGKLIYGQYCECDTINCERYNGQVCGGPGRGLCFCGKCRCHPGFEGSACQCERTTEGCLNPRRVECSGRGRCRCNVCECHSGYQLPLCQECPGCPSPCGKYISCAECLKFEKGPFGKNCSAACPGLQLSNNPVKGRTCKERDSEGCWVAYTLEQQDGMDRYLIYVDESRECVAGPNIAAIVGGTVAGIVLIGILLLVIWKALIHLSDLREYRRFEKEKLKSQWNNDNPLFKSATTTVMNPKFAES
Source text: as §1

These results are taken from patent US20080044428A1, “Glycosylphosphatidylinositol Glycan Signalling Via Integrins Functioning as Glycan Specific Receptors” (THE WALTER AND ELIZA HALL INSTITUTE OF MEDICAL RES, priority 2004, published 2008).

With “fluoresceinated BSA-cysteine: sham conjugate of BSA carrier protein substituting cysteine for glycan, fluoresceinated”, in assay [1], the “binding to sham-transfected CHO cells (CHO-Neo)” value is listed as 0.4%. In assay [2], the “binding to CHO cells transfected with αMβ2-integrin” value was found to be 0.69%.
